pIC50: −log10 of the molar value. Counter-ions that a name gives are not always drawn. Like-named read-outs stand apart in the source and are kept apart here. Bounds are passed on as bounds.

The target in assay [1] is T1, recombinant thioredoxin reductase 1 (TrxR1) (Homo sapiens, UniProt Q16881).
T1 sequence (Q16881 1-649): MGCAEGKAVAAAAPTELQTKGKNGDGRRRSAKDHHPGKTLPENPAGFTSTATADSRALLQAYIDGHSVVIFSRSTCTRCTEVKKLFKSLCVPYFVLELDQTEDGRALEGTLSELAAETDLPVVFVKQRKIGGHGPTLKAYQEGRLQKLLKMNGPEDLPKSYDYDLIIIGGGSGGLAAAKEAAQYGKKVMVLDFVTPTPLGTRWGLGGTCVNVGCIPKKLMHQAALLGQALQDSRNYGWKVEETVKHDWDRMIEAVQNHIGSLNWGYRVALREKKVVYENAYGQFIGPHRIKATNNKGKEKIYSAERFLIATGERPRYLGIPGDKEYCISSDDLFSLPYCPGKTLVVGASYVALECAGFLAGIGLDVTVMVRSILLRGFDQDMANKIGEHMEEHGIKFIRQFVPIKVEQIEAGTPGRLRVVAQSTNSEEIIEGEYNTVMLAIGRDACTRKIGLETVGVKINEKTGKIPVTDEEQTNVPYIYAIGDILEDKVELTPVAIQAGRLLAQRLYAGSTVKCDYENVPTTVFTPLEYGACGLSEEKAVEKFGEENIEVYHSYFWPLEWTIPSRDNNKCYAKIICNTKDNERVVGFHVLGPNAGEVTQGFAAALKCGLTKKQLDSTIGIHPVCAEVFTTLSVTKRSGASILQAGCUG
The experiment in a line: Inhibition of recombinant TrxR1 (DTNB assay). It is filed as biochemical. In a few lines: (§1)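 Human TrxR1 (15 nM) or GR (2 nM) preincubated 15 min with compound, 250 μM NADPH, 0.1 mg/ml BSA in 50 mM Tris pH 7.5, 2 mM EDTA, 1% DMSO. Reaction started with 2.5 mM DTNB (TrxR1, A412) or 1 mM GSSG (GR, A340). Percent activity relative to DMSO and no-enzyme blanks.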

The target of assay [2] is T2, gluthathione reductase (GR) (Homo sapiens, UniProt P00390).
T2 sequence (P00390 44-522): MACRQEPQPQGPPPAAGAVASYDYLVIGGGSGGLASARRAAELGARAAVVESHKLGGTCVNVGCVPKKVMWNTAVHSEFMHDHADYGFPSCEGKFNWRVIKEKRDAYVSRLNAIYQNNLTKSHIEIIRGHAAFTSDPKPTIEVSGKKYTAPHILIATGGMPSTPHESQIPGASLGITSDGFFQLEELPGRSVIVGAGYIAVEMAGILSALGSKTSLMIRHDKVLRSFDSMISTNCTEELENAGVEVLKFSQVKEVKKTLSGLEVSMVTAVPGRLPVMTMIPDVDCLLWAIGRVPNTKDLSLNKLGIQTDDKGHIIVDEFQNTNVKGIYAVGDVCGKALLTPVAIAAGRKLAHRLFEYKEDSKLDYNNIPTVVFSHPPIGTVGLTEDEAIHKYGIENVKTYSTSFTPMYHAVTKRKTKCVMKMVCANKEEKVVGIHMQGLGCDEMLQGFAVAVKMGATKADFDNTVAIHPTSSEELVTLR
Description: Inhibition of recombinant GR (GSSG assay). It is filed as biochemical. The gist of the method: as §1

The mark [3] stands for this setting: Biological Example 4, assays of Biological Example 1, read-out: TrxR Inhibition.
Where [4] appears, read: Biological Example 4, assays of Biological Example 1.
Where [5] appears, read: Biological Example 1, 15 nM TrxR1, 250 μM NADPH, 15 minutes incubation, read-out: TrxR inhibition.
The mark [6] stands for this setting: Biological Example 1, 2 nM GR, 250 μM NADPH, 15 minutes incubation.

In the case of `Cc1cccc(CN2[C@@H]3C(=O)C=C[C@H]2[C@@H]2C(=O)N(c4cccc(N5CCCCC5)c4)C(=O)[C@@H]23)c1` (relative stereo) [Example 63, exo-11-(3-Methylbenzyl)-4-(3-(piperidin-1-yl)phenyl)-4,11-diazatricyclo-[5.3.1.0^2,6]undec-9-ene-3,5,8-trione Trifluoroacetate], the pIC50 in assay [1] (setting [3]) is 5.80; in assay [2] (setting [4]), less than 4.00.
Turning to `Cc1cccc(CN2[C@@H]3C(=O)C=C[C@H]2[C@@H]2C(=O)N(c4c(C)cccc4C)C(=O)[C@@H]23)c1` (relative stereo) [Example 65, exo 4-(2,6-Dimethylphenyl)-11-(3-methylbenzyl)-4,11-diazatricyclo-[5.3.1.0^2,6]undec-9-ene-3,5,8-trione Trifluoroacetate], the pIC50 in assay [1] (setting [5]) was 5.34; in assay [1] (setting [3]), 5.28; in assay [2] (setting [6]), less than 4.00; in assay [2] (setting [4]), less than 4.00.
As for `Cc1cccc(CN2[C@@H]3C(=O)C=C[C@H]2[C@@H]2C(=O)N(c4ccc(Br)cc4)C(=O)[C@@H]23)c1` (relative stereo) [Example 66, exo-4-(4-Bromophenyl)-11-(3-methylbenzyl)-4,11-diazatricyclo[5.3.1.0^2,6]-undec-9-ene-3,5,8-trione Trifluoroacetate], the pIC50 in assay [1] (setting [3]) was 5.84; in assay [2] (setting [4]), less than 4.00.
As to `NS(=O)(=O)c1cccc(CN2[C@@H]3C(=O)C=C[C@H]2[C@@H]2C(=O)N(c4ccccc4)C(=O)[C@@H]23)c1` (relative stereo) [Example 67, exo-3-((3,5,10-Trioxo-4-phenyl-4,11-diazatricyclo[5.3.1.0^2,6]undec-8-en-11-yl)methyl)benzenesulfonamide Trifluoroacetate], the pIC50 in assay [1] (setting [5]) is 5.88; in assay [1] (setting [3]), 5.70; in assay [2] (setting [6]) it was less than 4.00; in assay [2] (setting [4]) it was less than 4.00.
On to `CS(=O)(=O)c1cccc(CN2[C@@H]3C(=O)C=C[C@H]2[C@@H]2C(=O)N(c4ccccc4)C(=O)[C@@H]23)c1` (relative stereo) [Example 68, exo-11-(3-(Methylsulfonyl)benzyl)-4-phenyl-4,11-diazatricyclo[5.3.1.0^2,6]-undec-9-ene-3,5,8-trione Trifluoroacetate], for which the pIC50 in assay [1] (setting [5]) was 5.73; in assay [1] (setting [3]), 5.65; in assay [2] (setting [6]), less than 4.00; in assay [2] (setting [4]) it was less than 4.00.
Take `Cc1cccc(CN2[C@@H]3C(=O)C=C[C@H]2[C@@H]2C(=O)N(c4cccc(N5CCOCC5)c4)C(=O)[C@@H]23)c1` (relative stereo) [Example 70, exo-11-(3-Methylbenzyl)-4-(3-(4-morpholino)phenyl)-4,11-diazatricyclo-[5.3.1.0^2,6]undec-9-ene-3,5,8-trione Trifluoroacetate]: the pIC50 in assay [1] (setting [5]) is 5.65; in assay [1] (setting [3]), 5.58; in assay [2] (setting [6]) it was less than 4.00; in assay [2] (setting [4]) it was less than 4.00.
With `CC(=O)Nc1ccc(N2C(=O)[C@@H]3[C@H](C2=O)[C@H]2C(=O)C=C[C@@H]3N2Cc2cccc(C)c2)cc1` (stereo in doubt) [Example 57, N-(4-(11-(3-Methylbenzyl)-3,5,10-trioxo-4,11-diazatricyclo[5.3.1.0^2,6]undec-8-en-4-yl)phenyl)acetamide Trifluoroacetate], the pIC50 in assay [1] (setting [3]) was 5.52; in assay [2] (setting [4]) it was less than 4.00.
Regarding `CC(c1ccccc1)N1C2C=CC(=O)C1C1C(=O)N(c3ccccc3)C(=O)C12` (stereo not drawn) [Example 5, 4-Phenyl-11-(1-phenylethyl)-4,11-diazatricyclo[5.3.1.0^2,6]undec-9-ene-3,5,8-trione Trifluoroacetate], the pIC50 in assay [1] (setting [3]) was 5.60; in assay [2] (setting [4]), less than 4.00.
Take `O=C1C=CC2C3C(=O)N(c4ccccc4)C(=O)C3C1N2Cc1ccc(Br)cc1` (stereo not drawn) [Example 6, 11-(4-Bromobenzyl)-4-phenyl-4,11-diazatricyclo[5.3.1.0^2,6]undec-9-ene-3,5,8-trione Trifluoroacetate]: the pIC50 was 5.67 in assay [1] (setting [5]), 6.24 in assay [1] (setting [3]), 4.21 in assay [2] (setting [6]) and 4.50 in assay [2] (setting [4]).
For the molecule `O=C1C=CC2C3C(=O)N(c4ccccc4)C(=O)C3C1N2Cc1ccc(F)cc1` (stereo not drawn) [Example 8, 11-(4-Fluorobenzyl)-4-phenyl-4,11-diazatricyclo[5.3.1.0^2,6]undec-9-ene-3,5,8-trione Trifluoroacetate], the values for the pIC50 in assay [1] (setting [3]) and in assay [2] (setting [4]) were 5.69 and 4.54, respectively.
With `CC1=CC(=O)C2C3C(=O)N(c4ccccc4)C(=O)C3C1N2Cc1ccccc1` (stereo not drawn) [Example 12, 9-Benzyl-7-methyl-2-phenyl-3a,4,8,8a-tetrahydro-4,8-epiminocyclohepta[c]-pyrrole-1,3,5(2H)-trione Trifluoroacetate], the pIC50 is 5.90 in assay [1] (setting [3]) and 4.38 in assay [2] (setting [4]).
On the same counts, the results for `CC1=CC(=O)[C@@H]2C3C(=O)N(C4CCCCC4)C(=O)C3[C@H]1N2Cc1ccccc1` (stereo partly drawn) [Example 13, endo-11-Benzyl-4-cyclohexyl-10-methyl-4,11-diazatricyclo[5.3.1.0^2,6]undec-9-ene-3,5,8-trione Trifluoroacetate] are 5.11 and less than 4.00.
As for `CC1=CC(=O)C2C3C(=O)N(Cc4ccccc4)C(=O)C3C1N2Cc1ccccc1` (stereo not drawn) [Example 15, 4,11-Dibenzyl-10-methyl-4,11-diazatricyclo[5.3.1.0^2,6]undec-9-ene-3,5,8-trione Trifluoroacetate], the pIC50 in assay [1] (setting [5]) was 5.84; in assay [1] (setting [3]) it was 5.48; in assay [2] (setting [6]) it was less than 4.00; in assay [2] (setting [4]) it was less than 4.00.
In the case of `O=C1C=CC2C3C(=O)N(c4ccccc4)C(=O)C3C1N2Cc1ccccc1Br` (stereo not drawn) [Example 20, 11-(2-Bromobenzyl)-4-phenyl-4,11-diazatricyclo[5.3.1.0^2,6]undec-9-ene-3,5,8-trione Trifluoroacetate], the pIC50 in assay [1] (setting [5]) is 5.43; in assay [1] (setting [3]), 6.03; in assay [2] (setting [6]) it was less than 4.00; in assay [2] (setting [4]), less than 4.00.
In the case of `O=C1C=C[C@H]2C3C(=O)N(c4ccccc4)C(=O)C3[C@@H]1N2Cc1cccc(F)c1` (stereo partly drawn) [Example 28], the figures for the pIC50 in assay [1] (setting [3]) and in assay [2] (setting [4]) were 5.57 and 4.53, respectively.
As to `O=C1C=CC2C3C(=O)N(c4ccccc4)C(=O)C3C1N2Cc1cccc(F)c1F` (stereo not drawn) [Example 31, exo-11-(2,3-Difluorobenzyl)-4-phenyl-4,11-diazatricyclo[5.3.1.0^2,6]undec-9-ene-3,5,8-trione Trifluoroacetate], the pIC50 in assay [1] (setting [3]) was 5.97; in assay [2] (setting [4]) it was less than 4.00.
On the same counts, the results for `O=C1C=CC2C3C(=O)N(c4ccccc4)C(=O)C3C1N2Cc1cccc(C(F)(F)F)c1` (stereo not drawn) [Example 32, 4-Phenyl-11-(3-trifluorobenzyl)-4,11-diazatricyclo[5.3.1.0^2,6]undec-9-ene-3,5,8-trione Trifluoroacetate] are 5.84 and 4.45.
On the same counts, the results for `Cc1cc(C)cc(CN2C3C=CC(=O)C2C2C(=O)N(c4ccccc4)C(=O)C23)c1` (stereo not drawn) [Example 33, exo-11-(3,5-Dimethylbenzyl)-4-phenyl-4,11-diazatricyclo[5.3.1.0^2,6]undec-9-ene-3,5,8-trione Trifluoroacetate] are 5.88 and less than 4.00.
On the same counts, the results for `O=C1C=CC2C3C(=O)N(c4ccccc4)C(=O)C3C1N2Cc1cccc(Br)c1` (stereo not drawn) [Example 34, exo-11-(3-Bromobenzyl)-4-phenyl-4,11-diazatricyclo[5.3.1.0^2,6]undec-9-ene-3,5,8-trione Trifluoroacetate] are 5.91 and less than 4.00.
For the molecule `Cc1cccc(CN2C3C=CC(=O)C2C2C(=O)N(c4ccccc4)C(=O)C23)c1F` (stereo not drawn) [Example 35, exo-11-(2-Fluoro-3-methylbenzyl)-4-phenyl-4,11-diazatricyclo[5.3.1.0^2,6]-undec-9-ene-3,5,8-trione Trifluoroacetate], the results for the pIC50 in assay [1] (setting [3]) and in assay [2] (setting [4]) were 5.97 and less than 4.00, respectively.
